Values after ≈ are worked out from the molar mass of the structure shown.

What all share (test): MIC, broth microdilution (NCCLS)
Format in all cases: cell-based
On the technique in general: Dilution methods test growth across graded concentrations, often in twofold steps.

Experiment [1] has as its system C. albicans GC3066 ATCC (Control). Particulars: Candida albicans, Mueller-Hinton II broth, 18-22 hours at 35° C. As for the experimental part: (§1) Methods for in Vitro Antibacterial Evaluation
(§2) The Minimum Inhibitory Concentration (MIC)
(§3) Antimicrobial susceptibility testing. The in vitro activities of the antibiotics are determined by the broth microdilution method as recommended by the National Committee for Clinical Laboratory Standards (NCCLS) (1). Mueller-Hinton II broth (MHBII)(BBL Cockeysville, Md.) is the medium employed in the testing procedures. Microtiter plates containing serial dilutions of each antimicrobial agent are inoculated with each organism to yield the appropriate density (10^5 CFU/ml) in a 100 μl final volume. The plates are incubated for 18-22 hours at 35° C. in ambient air.
(§4) 1. NCCLS. 2000. Methods for Dilution Antimicrobial Susceptibility Tests for Bacteria That Grow Aerobically; Approved Standards: M7-A5, vol. 20. National Committe for Clinical Laboratory Standards, Wayne, Pa.

Another experiment has as its system E. coli GC1073 (tet(B)). Conditions: Escherichia coli. As for the experimental part:
as §1, §2, §3, §4

The subject of experiment [2] is E. coli GC2203 (ATCC Control). Conditions: Escherichia coli, Mueller-Hinton II broth, 18-22 hours at 35° C. As for the experimental part: as §1, §2, §3, §4
The test system of the next experiment is E. coli GC2270 (tet(M)). Conditions: Escherichia coli. Here is the method:
as §1, §2, §3, §4

The subject of experiment [3] is E. coli GC4559 (parent GC4560). Particulars: Escherichia coli, Mueller-Hinton II broth, 18-22 hours at 35° C. Here is the method:
as §1, §2, §3, §4

For experiment [4], the system named is E. coli GC4560 (IMP mutant). Particulars: Escherichia coli. Here is the method:
as §1, §2, §3, §4

Experiment [5] deals with E. faecalis GC2242 (Van-resistant). Conditions: Enterococcus faecalis, Mueller-Hinton II broth, 18-22 hours at 35° C. Here is the method:
as §1, §2, §3, §4

The subject of experiment [6] is E. faecalis GC4555 (ATCC Control). Particulars: Enterococcus faecalis, Mueller-Hinton II broth, 18-22 hours at 35° C. As for the experimental part: as §1, §2, §3, §4
The subject of experiment [7] is H. influenzae<> GC6896 (ATCC Control). Particulars: Haemophilus influenzae, Mueller-Hinton II broth, 18-22 hours at 35° C. As for the experimental part:
as §1, §2, §3, §4

The subject of experiment [8] is M. catarrhalis* GC6907 (Clinical). Conditions: Moraxella catarrhalis, Mueller-Hinton II broth, 18-22 hours at 35° C. As for the experimental part: as §1, §2, §3, §4
Experiment [9] relates to S. aureus GC1079 (tet(K)). Conditions: Staphylococcus aureus, Mueller-Hinton II broth, 18-22 hours at 35° C. Here is the method:
as §1, §2, §3, §4

In experiment [10] the test system is S. aureus GC1131 (Clinical). Conditions: Staphylococcus aureus, Mueller-Hinton II broth, 18-22 hours at 35° C. As for the experimental part:
as §1, §2, §3, §4

Experiment [11] relates to S. aureus GC2216 (ATCC Control). Particulars: Staphylococcus aureus, Mueller-Hinton II broth, 18-22 hours at 35° C. As for the experimental part: as §1, §2, §3, §4
The subject of experiment [12] is S. aureus GC4536 (Smith MP -In Vivo). Conditions: Staphylococcus aureus, Mueller-Hinton II broth, 18-22 hours at 35° C. Here is the method:
as §1, §2, §3, §4

Experiment [13] has as its system S. aureus GC6466 (tet(M)). Particulars: Staphylococcus aureus, Mueller-Hinton II broth, 18-22 hours at 35° C. Here is the method:
as §1, §2, §3, §4

For experiment [14], the system named is S. pneumoniae* GC1894 (Clinical). Conditions: Streptococcus pneumoniae, Mueller-Hinton II broth, 18-22 hours at 35° C. As for the experimental part: as §1, §2, §3, §4
In experiment [15] the test system is S. pneumoniae* GC4465 (Clinical). Particulars: Streptococcus pneumoniae, Mueller-Hinton II broth, 18-22 hours at 35° C. As for the experimental part:
as §1, §2, §3, §4

Experiment [16] has as its system S. pyogenes* GC4563 (Clinical). Particulars: Streptococcus pyogenes, Mueller-Hinton II broth, 18-22 hours at 35° C. As for the experimental part:
as §1, §2, §3, §4

Take `CN(C)c1cc2nc(/C=C/c3ccco3)oc2c2c1C[C@H]1C[C@H]3[C@H](N(C)C)C(O)=C(C(N)=O)C(=O)[C@@]3(O)C(O)=C1C2=O` [Example 22, (6aR,7aS,8S,11aS)-5,8-bis(dimethylamino)-2-[(E)-2-(2-furyl)ethenyl]-9,11a,12-trihydroxy-11,13-dioxo-6,6a,7,7a,8,11,11a,13-octahydrotetraceno[2,1-d][1,3]oxazole-10-carboxamide]: the MIC is greater than 64 µg/mL in [1]; greater than 64 µg/mL against E. coli GC1073 (tet(B)); greater than 64 µg/mL in experiment [2]; greater than 64 µg/mL against E. coli GC2270 (tet(M)); greater than 64 µg/mL in experiment [3]; 8 µg/mL (≈ 13.9 µM) in [4]. The MIC in experiment [5] is 8 µg/mL (≈ 13.9 µM); in [6], 8 µg/mL (≈ 13.9 µM); in [7], greater than 64 µg/mL; in [8], 16 µg/mL (≈ 27.8 µM); in experiment [9] it was 8 µg/mL (≈ 13.9 µM); in experiment [10] it was 8 µg/mL (≈ 13.9 µM). Moreover, the MIC in experiment [11] was found to be 8 µg/mL (≈ 13.9 µM); in [12] it was 8 µg/mL (≈ 13.9 µM); in experiment [13], 8 µg/mL (≈ 13.9 µM); in experiment [14] it was 32 µg/mL (≈ 55.7 µM); in [15], 32 µg/mL (≈ 55.7 µM); in experiment [16], 16 µg/mL (≈ 27.8 µM).
As to `CN(C)c1cc2nc(-c3nccs3)oc2c2c1C[C@H]1C[C@H]3[C@H](N(C)C)C(O)=C(C(N)=O)C(=O)[C@@]3(O)C(O)=C1C2=O` [Example 24, (6aR,7aS,8S,11aS)-5,8-bis(dimethylamino)-9,11a,12-trihydroxy-11,13-dioxo-2-(1,3-thiazol-2-yl)-6,6a,7,7a,8,11,11a,13-octahydrotetraceno[2,1-d][1,3]oxazole-10-carboxamide], the MIC was greater than 64 µg/mL in [1]; greater than 64 µg/mL in the experiment on E. coli GC1073 (tet(B)); greater than 64 µg/mL in [2]; greater than 64 µg/mL against E. coli GC2270 (tet(M)); greater than 64 µg/mL in experiment [3]; 32 µg/mL (≈ 56.6 µM) in experiment [4]. Besides, the MIC in experiment [5] was 32 µg/mL (≈ 56.6 µM); in experiment [6], 32 µg/mL (≈ 56.6 µM); in experiment [7] it was greater than 64 µg/mL; in experiment [8], greater than 64 µg/mL; in experiment [9], 32 µg/mL (≈ 56.6 µM); in experiment [10], 32 µg/mL (≈ 56.6 µM). The MIC is 64 µg/mL (≈ 113 µM) in [11]; 32 µg/mL (≈ 56.6 µM) in [12]; 32 µg/mL (≈ 56.6 µM) in [13]; 64 µg/mL (≈ 113 µM) in experiment [14]; 64 µg/mL (≈ 113 µM) in [15]; 32 µg/mL (≈ 56.6 µM) in experiment [16].
Turning to `CN(C)c1cc2nc(/C=C/c3ccccc3)oc2c2c1C[C@H]1C[C@H]3[C@H](N(C)C)C(O)=C(C(N)=O)C(=O)[C@@]3(O)C(O)=C1C2=O` [Example 25, (6aR,7aS,8S,11aS)-5,8-bis(dimethylamino)-9,1a,12-trihydroxy-11,13-dioxo-2-[(E)-2-phenylethenyl]-6,6a,7,7a,8,11,11a,13-octahydrotetraceno[2,1-d][1,3]oxazole-10-carboxamide], the MIC in experiment [1] was greater than 64 µg/mL; against E. coli GC1073 (tet(B)) it was greater than 64 µg/mL; in [2] it was greater than 64 µg/mL; against E. coli GC2270 (tet(M)), greater than 64 µg/mL; in [3], greater than 64 µg/mL; in experiment [4], 8 µg/mL (≈ 13.7 µM). The MIC in experiment [5] is 4 µg/mL (≈ 6.84 µM); in experiment [6], 8 µg/mL (≈ 13.7 µM); in experiment [7], greater than 64 µg/mL; in experiment [8] it was 16 µg/mL (≈ 27.4 µM); in experiment [9], 4 µg/mL (≈ 6.84 µM); in experiment [10], 8 µg/mL (≈ 13.7 µM). Moreover, the MIC was determined as 4 µg/mL (≈ 6.84 µM) in experiment [11]; 8 µg/mL (≈ 13.7 µM) in experiment [12]; 4 µg/mL (≈ 6.84 µM) in experiment [13]; 32 µg/mL (≈ 54.7 µM) in [14]; 32 µg/mL (≈ 54.7 µM) in [15]; 16 µg/mL (≈ 27.4 µM) in experiment [16].
On to `COc1ccc(/C=C/c2nc3cc(N(C)C)c4c(c3o2)C(=O)C2=C(O)[C@]3(O)C(=O)C(C(N)=O)=C(O)[C@@H](N(C)C)[C@@H]3C[C@@H]2C4)cc1` [Example 26, (6aR,7aS,8S,11aS)-5,8-bis(dimethylamino)-9,11a,12-trihydroxy-2-[(E)-2-(4-methoxyphenyl)ethenyl]-11,13-dioxo-6,6a,7,7a,8,11,11a,13-octahydrotetraceno[2,1-d][1,3]oxazole-10-carboxamide], for which the MIC in experiment [1] is greater than 64 µg/mL; against E. coli GC1073 (tet(B)), greater than 64 µg/mL; in experiment [2], greater than 64 µg/mL; against E. coli GC2270 (tet(M)), greater than 64 µg/mL; in experiment [3], greater than 64 µg/mL; in experiment [4], 32 µg/mL (≈ 52.1 µM). The MIC is 16 µg/mL (≈ 26 µM) in experiment [5]; 32 µg/mL (≈ 52.1 µM) in experiment [6]; greater than 64 µg/mL in experiment [7]; greater than 64 µg/mL in experiment [8]; 32 µg/mL (≈ 52.1 µM) in experiment [9]; 16 µg/mL (≈ 26 µM) in experiment [10]. The MIC was 16 µg/mL (≈ 26 µM) in experiment [11]; 32 µg/mL (≈ 52.1 µM) in experiment [12]; 16 µg/mL (≈ 26 µM) in experiment [13]; greater than 64 µg/mL in [14]; greater than 64 µg/mL in experiment [15]; 64 µg/mL (≈ 104 µM) in [16].
`COc1cccc(/C=C/c2nc3cc(N(C)C)c4c(c3o2)C(=O)C2=C(O)[C@]3(O)C(=O)C(C(N)=O)=C(O)[C@@H](N(C)C)[C@@H]3C[C@@H]2C4)c1` [Example 27, (6aR,7aS,8S,11aS)-5,8-bis(dimethylamino)-9,11a,12-trihydroxy-2-[(E)-2-(3-methoxyphenyl)ethenyl]-11,13-dioxo-6,6a,7,7a,8,11,11a,13-octahydrotetraceno[2,1-d][1,3]oxazole-10-carboxamide]: the MIC in experiment [1] was greater than 64 µg/mL; in the experiment with E. coli GC1073 (tet(B)), greater than 64 µg/mL; in [2], greater than 64 µg/mL; against E. coli GC2270 (tet(M)), greater than 64 µg/mL; in [3] it was greater than 64 µg/mL; in experiment [4] it was 32 µg/mL (≈ 52.1 µM). Besides, the MIC in experiment [5] is 8 µg/mL (≈ 13 µM); in experiment [6], 16 µg/mL (≈ 26 µM); in experiment [7], greater than 64 µg/mL; in experiment [8], greater than 64 µg/mL; in experiment [9], 8 µg/mL (≈ 13 µM); in [10] it was 8 µg/mL (≈ 13 µM). The MIC in experiment [11] amounted to 8 µg/mL (≈ 13 µM); in experiment [12], 16 µg/mL (≈ 26 µM); in experiment [13], 16 µg/mL (≈ 26 µM); in [14], 64 µg/mL (≈ 104 µM); in experiment [15] it was 64 µg/mL (≈ 104 µM); in [16], 64 µg/mL (≈ 104 µM).
For the compound `COc1ccccc1/C=C/c1nc2cc(N(C)C)c3c(c2o1)C(=O)C1=C(O)[C@]2(O)C(=O)C(C(N)=O)=C(O)[C@@H](N(C)C)[C@@H]2C[C@@H]1C3` [Example 28, (6aR,7aS,8S,11aS)-5,8-bis(dimethylamino)-9,11a,12-trihydroxy-2-[(E)-2-(2-methoxyphenyl)ethenyl]-11,13-dioxo-6,6a,7,7a,8,11,11a,13-octahydrotetraceno[2,1-d][1,3]oxazole-10-carboxamide], the MIC was greater than 64 µg/mL in experiment [1]; greater than 64 µg/mL with E. coli GC1073 (tet(B)); greater than 64 µg/mL in experiment [2]; greater than 64 µg/mL against E. coli GC2270 (tet(M)); greater than 64 µg/mL in [3]; 16 µg/mL (≈ 26 µM) in experiment [4]. The MIC is 8 µg/mL (≈ 13 µM) in experiment [5]; 16 µg/mL (≈ 26 µM) in experiment [6]; greater than 64 µg/mL in experiment [7]; 64 µg/mL (≈ 104 µM) in experiment [8]; 16 µg/mL (≈ 26 µM) in experiment [9]; 8 µg/mL (≈ 13 µM) in experiment [10]. Moreover, the MIC in experiment [11] was 8 µg/mL (≈ 13 µM); in [12], 16 µg/mL (≈ 26 µM); in experiment [13], 8 µg/mL (≈ 13 µM); in [14] it was 64 µg/mL (≈ 104 µM); in [15] it was 32 µg/mL (≈ 52.1 µM); in [16], 16 µg/mL (≈ 26 µM).
